From PubChem BioAssay (NCI)
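Cultured in 96-well plates, cells were exposed to test compound for 48 hours across five concentrations. The concentration for full growth arrest is given as TGI.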

Tests used:
Assay in all cases: DTP human tumour cell line panel, 48 h
A549 NSCLC = system: A549 NSCLC
M14 melanoma = system: M14 melanoma
OVCAR-5 ovarian = system: OVCAR-5 ovarian
UACC-62 melanoma = system: UACC-62 melanoma
MOLT-4 leukemia = system: MOLT-4 leukemia
SN12C renal = system: SN12C renal
IGROV1 ovarian = system: IGROV1 ovarian
SF-295 CNS = system: SF-295 CNS
SK-MEL-2 melanoma = system: SK-MEL-2 melanoma
HCC-2998 colon = system: HCC-2998 colon
786-0 renal = system: 786-0 renal
TK-10 renal = system: TK-10 renal
NCI-H226 lung = system: NCI-H226 lung
RPMI-8226 leukemia = system: RPMI-8226 leukemia
NCI-H522 lung = system: NCI-H522 lung
MDA-MB-231 breast = system: MDA-MB-231 breast
HT29 colon = system: HT29 colon
KM12 colon = system: KM12 colon
HOP-92 NSCLC = system: HOP-92 NSCLC
NCI-H460 lung = system: NCI-H460 lung
OVCAR-4 ovarian = system: OVCAR-4 ovarian
BT-549 breast = system: BT-549 breast
PC-3 prostate = system: PC-3 prostate
SR leukemia = system: SR leukemia
HCT-116 colon = system: HCT-116 colon
K-562 leukemia = system: K-562 leukemia
SF-539 CNS = system: SF-539 CNS
RXF 393 renal = system: RXF 393 renal
HOP-62 NSCLC = system: HOP-62 NSCLC
CCRF-CEM leukemia = system: CCRF-CEM leukemia
MDA-N = system: MDA-N
NCI/ADR-RES ovarian = system: NCI/ADR-RES ovarian
SNB-19 CNS = system: SNB-19 CNS
U251 CNS = system: U251 CNS
EKVX NSCLC = system: EKVX NSCLC
A498 renal = system: A498 renal
MALME-3M melanoma = system: MALME-3M melanoma
HCT-15 colon = system: HCT-15 colon
ACHN renal = system: ACHN renal
UACC-257 melanoma = system: UACC-257 melanoma
LOX IMVI melanoma = system: LOX IMVI melanoma
SF-268 CNS = system: SF-268 CNS
COLO 205 colon = system: COLO 205 colon
SK-MEL-28 melanoma = system: SK-MEL-28 melanoma
SW-620 colon = system: SW-620 colon
MCF7 breast = system: MCF7 breast
NCI-H23 lung = system: NCI-H23 lung
OVCAR-8 ovarian = system: OVCAR-8 ovarian
SNB-75 CNS = system: SNB-75 CNS
SK-MEL-5 melanoma = system: SK-MEL-5 melanoma
OVCAR-3 ovarian = system: OVCAR-3 ovarian
CAKI-1 renal = system: CAKI-1 renal
HS 578T breast = system: HS 578T breast
DU-145 prostate = system: DU-145 prostate
UO-31 renal = system: UO-31 renal
MDA-MB-435 = system: MDA-MB-435
SK-OV-3 ovarian = system: SK-OV-3 ovarian
T-47D breast = system: T-47D breast
HL-60(TB) leukemia = system: HL-60(TB) leukemia

Molecule `C=CC(Cl)(CBr)CCC(Br)=C(C)C` (stereo not drawn) has a TGI (A549 NSCLC) of over 100 µM, a TGI (M14 melanoma) of over 100 µM and a TGI (OVCAR-5 ovarian) of 61.2 µM. It also gave a TGI (UACC-62 melanoma) of 36 µM, a TGI (MOLT-4 leukemia) of over 100 µM and a TGI (SN12C renal) of 33 µM. It also gave a TGI (IGROV1 ovarian) of 29.9 µM, a TGI (SF-295 CNS) of over 100 µM and a TGI (SK-MEL-2 melanoma) of 36.8 µM. For the same molecule, the TGI (HCC-2998 colon) was 44.5 µM, the TGI (786-0 renal) was 67.6 µM and the TGI (TK-10 renal) was 58.8 µM. The TGI (NCI-H226 lung) was over 100 µM, the TGI (RPMI-8226 leukemia) was 54.5 µM and the TGI (NCI-H522 lung) was 36.8 µM. It also gave a TGI (MDA-MB-231 breast) of 37.5 µM, a TGI (HT29 colon) of 39.8 µM and a TGI (KM12 colon) of 40.7 µM. It also gave a TGI (HOP-92 NSCLC) of 35.2 µM, a TGI (NCI-H460 lung) of 38 µM and a TGI (OVCAR-4 ovarian) of 46.6 µM. For the same molecule, the TGI (BT-549 breast) was 44.4 µM, the TGI (PC-3 prostate) was 52.7 µM and the TGI (SR leukemia) was over 100 µM. The TGI (HCT-116 colon) was 63 µM, the TGI (K-562 leukemia) was over 100 µM and the TGI (SF-539 CNS) was 44 µM. For the same molecule, the TGI (RXF 393 renal) was 38.5 µM, the TGI (HOP-62 NSCLC) was over 100 µM and the TGI (CCRF-CEM leukemia) was over 100 µM. It also gave a TGI (MDA-N) of 40.8 µM, a TGI (NCI/ADR-RES ovarian) of 91.2 µM and a TGI (SNB-19 CNS) of over 100 µM. It also gave a TGI (U251 CNS) of 30.5 µM, a TGI (EKVX NSCLC) of over 100 µM and a TGI (A498 renal) of over 100 µM. For the same molecule, the TGI (MALME-3M melanoma) was 34.5 µM, the TGI (HCT-15 colon) was 35.9 µM and the TGI (ACHN renal) was 49.7 µM. It also gave a TGI (UACC-257 melanoma) of 59.5 µM, a TGI (LOX IMVI melanoma) of 37.8 µM and a TGI (SF-268 CNS) of 43.3 µM. For the same molecule, the TGI (COLO 205 colon) was 33.4 µM, the TGI (SK-MEL-28 melanoma) was 40.7 µM and the TGI (SW-620 colon) was 29.2 µM. The TGI (MCF7 breast) was 31.5 µM, the TGI (NCI-H23 lung) was 68.5 µM and the TGI (OVCAR-8 ovarian) was 64.6 µM. The TGI (SNB-75 CNS) was 91.4 µM, the TGI (SK-MEL-5 melanoma) was 33.7 µM and the TGI (OVCAR-3 ovarian) was 55.3 µM. The TGI (CAKI-1 renal) was 21.2 µM, the TGI (HS 578T breast) was 76.2 µM and the TGI (DU-145 prostate) was over 100 µM. It also gave a TGI (UO-31 renal) of 37.4 µM and a TGI (MDA-MB-435) of 46.7 µM.
Work on `CCSc1nc(N)c2c(-c3ccc(OC)c(OC)c3)c3c(nc2n1)CCCC3` yielded a TGI (A549 NSCLC) of over 100 µM, a TGI (M14 melanoma) of over 100 µM and a TGI (OVCAR-5 ovarian) of over 100 µM. It also gave a TGI (UACC-62 melanoma) of over 100 µM, a TGI (MOLT-4 leukemia) of over 100 µM and a TGI (SN12C renal) of over 100 µM. It also gave a TGI (IGROV1 ovarian) of over 100 µM, a TGI (SF-295 CNS) of over 100 µM and a TGI (SK-OV-3 ovarian) of over 100 µM. The TGI (TK-10 renal) was over 100 µM, the TGI (RPMI-8226 leukemia) was over 100 µM and the TGI (MDA-MB-231 breast) was over 100 µM. It also gave a TGI (HT29 colon) of over 100 µM, a TGI (T-47D breast) of over 100 µM and a TGI (KM12 colon) of over 100 µM. The TGI (NCI-H460 lung) was over 100 µM, the TGI (OVCAR-4 ovarian) was over 100 µM and the TGI (BT-549 breast) was over 100 µM. The TGI (PC-3 prostate) was over 100 µM, the TGI (SR leukemia) was over 100 µM and the TGI (HCT-116 colon) was over 100 µM. The TGI (K-562 leukemia) was over 100 µM, the TGI (SF-539 CNS) was over 100 µM and the TGI (RXF 393 renal) was over 100 µM. For the same molecule, the TGI (HOP-62 NSCLC) was over 100 µM, the TGI (CCRF-CEM leukemia) was over 100 µM and the TGI (MDA-N) was over 100 µM. For the same molecule, the TGI (NCI/ADR-RES ovarian) was over 100 µM, the TGI (SNB-19 CNS) was over 100 µM and the TGI (U251 CNS) was over 100 µM. The TGI (EKVX NSCLC) was over 100 µM, the TGI (MALME-3M melanoma) was over 100 µM and the TGI (HL-60(TB) leukemia) was over 100 µM. For the same molecule, the TGI (HCT-15 colon) was over 100 µM, the TGI (ACHN renal) was over 100 µM and the TGI (UACC-257 melanoma) was over 100 µM. The TGI (LOX IMVI melanoma) was over 100 µM, the TGI (SF-268 CNS) was over 100 µM and the TGI (COLO 205 colon) was over 100 µM. The TGI (SK-MEL-28 melanoma) was over 100 µM, the TGI (SW-620 colon) was over 100 µM and the TGI (MCF7 breast) was over 100 µM. For the same molecule, the TGI (NCI-H23 lung) was over 100 µM, the TGI (OVCAR-8 ovarian) was over 100 µM and the TGI (SNB-75 CNS) was over 100 µM. It also gave a TGI (SK-MEL-5 melanoma) of over 100 µM, a TGI (OVCAR-3 ovarian) of over 100 µM and a TGI (CAKI-1 renal) of over 100 µM. The TGI (HS 578T breast) was over 100 µM, the TGI (DU-145 prostate) was over 100 µM and the TGI (UO-31 renal) was over 100 µM. It also gave a TGI (MDA-MB-435) of over 100 µM.
